SMILES | melting point [°C]
COc1ccc(N(Cc2ccc(=O)[nH]c2)c2ccc(C(=O)O)cc2)cc1OC1CCCC1 [Compound 29] | 143.7 to 145.9
COc1ccc(N(Cc2cncs2)c2cccc(C(=O)O)c2)cc1OC1CCCC1 [Compound 35] | 65.6 to 70.6
COc1ccc(N(Cc2cn[nH]c2)c2ccc(C(=O)O)cc2)cc1OC1CCCC1 [Compound 39] | 108.9 to 112.3
COc1ccc(N(Cc2cncs2)c2ccc(C(=O)O)cc2)cc1OC1CCCC1 [Compound 40] | 88 to 90.3
COc1ccc(N(Cc2cncnc2)c2ccc(C(=O)O)cc2)cc1OC1CCCC1 [Compound 43] | 156.6 to 159.8
COc1ccc(N(Cc2cscn2)c2cccc(C(=O)O)c2)cc1OC1CCCC1 [Compound 45] | 75.5 to 77.7
COc1ccc(N(Cc2cccnn2)c2cccc(C(=O)O)c2)cc1OC1CCCC1 [Compound 48] | 178.9 to 184.3
COc1ccc(N(CC2CCNCC2)c2cccc(C(=O)O)c2)cc1OC1CCCC1 [Compound 50] | 228.8 to 232.1
COc1ccc(N(Cc2cnc(N(C)C)nc2)c2ccc(C(=O)O)cc2)cc1OC1CCCC1 [Compound 51] | 95.9 to 99.5
COc1ccc(N(Cc2cnc(N(C)C)nc2)c2cccc(C(=O)O)c2)cc1OC1CCCC1 [Compound 52] | 82 to 84.7
O=C(O)c1ccc(N(Cc2cncs2)c2ccc(OC(F)F)c(OC(F)F)c2)cc1 [Compound 59] | 144.3 to 145.7
O=C(O)Cc1ccc(N(Cc2cccnc2)c2ccc(OC(F)F)c(OC(F)F)c2)cc1 [Compound 69] | 107.4 to 108.1
COc1ccc(N(Cc2cncs2)c2cccc(C(=O)O)c2)cc1O[C@@H]1CCOC1 [Compound 70] | 60.3 to 61.9
COc1ccc(N(Cc2cncs2)c2ccc(C(=O)O)cc2)cc1O[C@@H]1CCOC1 [Compound 71] | 60.3 to 60.8
COc1ccc(N(Cc2cncs2)c2ccc(C(=O)O)cc2)cc1OCC1CC1 [Compound 72] | 128.7 to 129.4
COc1ccc(N(Cc2cncs2)c2cccc(C(=O)O)c2)cc1OCC1CC1 [Compound 73] | 137.4 to 139.4
O=C(O)c1ccc(N(Cc2cccnn2)c2ccc(OC(F)F)c(OC(F)F)c2)cc1 [Compound 74] | 162.6 to 164.8

SMILES | melting point [°C]
O=C(O)c1ccc(N(Cc2cncnc2)c2ccc(OC(F)F)c(OC(F)F)c2)cc1 [Compound 80] | 186.7 to 187.4
CCOc1cc(N(Cc2cncs2)c2ccc(C(=O)O)cc2)ccc1OC(F)F [Compound 99] | 67 to 69.3
O=C(O)c1ccc(N(Cc2cncs2)c2ccc(OC(F)F)c(OC3CCCC3)c2)cc1 [Compound 104] | 67.3 to 69.7
CC(C)Oc1cc(N(Cc2cncs2)c2ccc(C(=O)O)cc2)ccc1OC(F)F [Compound 106] | 158 to 158.5
CC(C)Oc1cc(N(Cc2cccnc2)c2ccc(C(=O)O)cc2)ccc1OC(F)F [Compound 107] | 66.5 to 67.9
CC(C)Oc1cc(N(Cc2cccnc2)c2cccc(C(=O)O)c2)ccc1OC(F)F [Compound 108] | 57.3 to 58.9
CC(C)Oc1cc(N(Cc2cncs2)c2cccc(C(=O)O)c2)ccc1OC(F)F [Compound 109] | 58.6 to 60
O=C(O)c1cccc(N(Cc2cncs2)c2ccc(OC(F)F)c(OC3CCCC3)c2)c1 [Compound 110] | 56.3 to 58
COc1cc(N(Cc2cncs2)c2ccc(C(=O)O)cc2)ccc1OC(F)F [Compound 120] | 164.9 to 165.3
COc1cc(N(Cc2cccnc2)c2ccc(C(=O)O)cc2)ccc1OC(F)F [Compound 124] | 182.4 to 183.4
CCCCOc1cc(N(Cc2cccnc2)c2ccc(C(=O)O)cc2)ccc1OC(F)F [Compound 128] | 133.7 to 135.1
CCCCOc1cc(N(Cc2cncs2)c2ccc(C(=O)O)cc2)ccc1OC(F)F [Compound 129] | 158.7 to 159.5
CCOc1cc(N(Cc2cncs2)c2ccc(C(=O)O)cc2)ccc1OC [Compound 130] | 73.1 to 74.5
COc1ccc(N(Cc2cncs2)c2ccc(C(=O)O)cc2)cc1OC(C)C [Compound 131] | 67.8 to 69.1
COc1ccc(N(Cc2cncs2)c2ccc(C(=O)O)cc2)cc1OC [Compound 138] | 86.4 to 88.3
O=C(O)c1ccc(N(Cc2cnco2)c2ccc(OC(F)F)c(OC(F)F)c2)cc1 [Compound 141] | 132.4 to 135
O=C(O)c1ccc(N(Cc2cnccn2)c2ccc(OC(F)F)c(OC(F)F)c2)cc1 [Compound 142] | 158 to 161.1

Other lines, results leading:

melting point [°C] | SMILES
165.3 to 165.9 | CCOc1cc(N(Cc2cncnc2)c2ccc(C(=O)O)cc2)ccc1OC(F)F [Compound 143]
111.1 to 113 | CCOc1cc(N(Cc2cnco2)c2ccc(C(=O)O)cc2)ccc1OC(F)F [Compound 144]
86.4 to 88.3 | COc1ccc(N(Cc2cncs2)c2cccc(C(=O)O)c2)cc1OC(F)F [Compound 149]
86.4 to 88.3 | COc1ccc(N(Cc2cncs2)c2ccc(C(=O)O)cc2)cc1OC(F)F [Compound 150]
191.3 to 191.5 | COc1cc(N(Cc2cncnc2)c2ccc(C(=O)O)cc2)ccc1OC(F)F [Compound 153]
157.2 to 157.7 | COc1cc(N(Cc2cnccn2)c2ccc(C(=O)O)cc2)ccc1OC(F)F [Compound 154]
132.3 to 135.7 | CC(C)Oc1cc(N(Cc2cnccn2)c2ccc(C(=O)O)cc2)ccc1OC(F)F [Compound 155]
81.2 to 82 | CC(C)Oc1cc(N(Cc2cnccn2)c2cccc(C(=O)O)c2)ccc1OC(F)F [Compound 156]
81.2 to 82.3 | O=C(O)c1ccc(N(Cc2cnccn2)c2ccc(OC(F)F)c(OCC3CC3)c2)cc1 [Compound 157]
72.7 to 73.1 | O=C(O)c1cccc(N(Cc2cnccn2)c2ccc(OC(F)F)c(OCC3CC3)c2)c1 [Compound 159]
121.7 to 123.1 | CC(C)Oc1cc(N(Cc2cncs2)c2cncc(C(=O)O)c2)ccc1OC(F)F [Compound 160]
105.5 to 106.4 | CNS(=O)(=O)c1ccc(N(Cc2cncs2)c2ccc(OC(F)F)c(OC(F)F)c2)cc1 [Compound 165]
265.1 to 266.6 | O=C(O)c1ccc(N(Cc2cncnc2)c2ccc(OC(F)F)c(OCC3CC3)c2)cc1 [Compound 168]
77 to 79 | CCOc1ccc(N(Cc2cncs2)c2ccc(C(=O)O)cc2)cc1OCC [Compound 170]
60.3 to 61 | COc1ccc(N(Cc2cnco2)c2ccc(C(=O)O)cc2)cc1OC(C)C [Compound 180]
175.6 to 176.9 | CCOc1cc(N(Cc2cnco2)c2ccc(C(=O)O)cc2)ccc1OC [Compound 181]
160 to 161.7 | COc1ccc(N(Cc2cnco2)c2ccc(C(=O)O)cc2)cc1OCC1CC1 [Compound 183]
148 to 150.3 | COc1ccc(N(Cc2cnco2)c2ccc(C(=O)O)cc2)cc1OC1CCC1 [Compound 184]
208.7 to 209.9 | COc1cc(N(Cc2cncnc2)c2ccc(C(=O)O)cc2)ccc1OCC(F)(F)F [Compound 186]
181.7 to 183.6 | COc1ccc(N(Cc2cncnc2)c2ccc(C(=O)O)cc2)cc1OC(C)C [Compound 192]
